Patent US20250163091A1, “FUNCTIONALIZED HUMAN MILK OLIGOSACCHARIDES AND METHODS FOR PRODUCING THEM” (The Regents of the University of California, priority 2022, published 2025)

Experiment: Assays for synthesizing FDS-LNTβNHCbz (48) from S-LNF-IIβNHCbz (37)
Assay type: biochemical
Conditions: 30° C., analyzed by HRMS at 24 hours and 72 hours
Experimental: Assays for synthesizing FDS-LNTβNHCbz (48) from S-LNF-IIβNHCbz (37). Assays were carried out at 30° C. in a total volume of 10 μL in Tris-HCl buffer (100 mM, pH 7.5) containing (10 mM), CMP-Neu5Ac (15 mM), MgCl2 (20 mM), MBP-Δ50hST6GALNAC V_ext20-Hiss ([…]), MBP-Δ50hST6GALNAC V_V99M-His6, or MBP-Δ50hST6GALNAC V_V99M_ext20-His6. The reactions were analyzed by HRMS at 24 hours and 72 hours. The formation of FDS-LNTβNHCbz (48) was observed (FIGS. 71A and 71B), and the conversion was around 40-50% after 72 h incubation using MBP-Δ50hST6GALNAC V_ext20-His6.

## MBP-Δ50hST6GALNAC V_V99M-His6: V99M mutant of recombinant human ST6GALNAC V with N-terminal MBP and C-terminal His6
  formation of FDS-LNTβNHCbz (48): formation of the target product was also observed
